Test results reported in US20180291325A1, “IN VITRO PHARMACOKINETIC-PHARMACODYNAMIC DEVICE” (Merck Sharp & Dohme Corp., priority 2015, published 2018).

What was measured:
Format in all cases: cell-based
[1] = test system: HCV genotype 1B (5-2) replicon cell line; assay: HulaCell in vitro PK-PD PK driver experiments (dose escalation and dose fractionation; luciferase reporter and RT-PCR viral RNA); conditions: adjusted to free fraction, Day 3
Method: Three QD infusions of the HCV NS3/4 protease inhibitor, (1aR,5S,8S,10R,22aR)-N-[(1R,2S)-1-[(Cyclopropylsulfonamido)carbonyl]-2-ethenylcyclopropyl]-14-methoxy-5-(2-methylpropan-2-yl)-3,6-dioxo-1,1a,3,4,5,6,9,10,18,19,20,21,22,22a-tetradecahydro-8H-7,10-methanocyclopropa[18,19][1,10,3,6]dioxadiazacyclononadecino[11,12-b]quinoxaline-8-carboxamide (“Compound”; See U.S. Pat. No. 7,973,040) were tested in the Hula Cell using the in vitro PK-PD software program and PK was monitored by collecting samples at multiple time point during each infusion. In addition, microcarrier beads were also collected daily to measure changes in viral load by RT-PCR Taqman analysis of cell lysates.
A frozen vial of HCV genotype 1B replicon cells (5-2 cells which contain genotype 1B replicon and a Luciferase reporter) was thawed and seeded into one T-75 flask. At confluency, the flask was trypsinized and cells resuspended to 6×10^6 cells in 9.5 ml DMEM containing 10% FBS and 0.5 mg/ml G418 in a 50 ml LeviTube™. 0.5 ml of collagen-coated microcarrier bead slurry mixture (50% V/V) was added to the 9.5 ml of cells and attachment was performed using BioWiggler™ microcarrier loading program (RPM=60; 1 min mixing; 40 min settle (repeat 6x=4 hr total)). Continuous mixing at 60 rpm was performed overnight. The next morning, 30 ml of fresh media was added to the culture. The microcarriers and attached cells were allowed to settle before removing 30 ml of media with any unattached cells from the LeviTube™. Afterward, 30 ml of fresh media was added back to the LeviTube™ to make the final volume 40 ml. […]
PK/PD samples were collected on Day 0, Day 1, Day 2, and Day 3 directly from the 50 ml LeviTube™ at specified time points. […] Compound concentration in the PK samples was determined by Mass Spectroscopy analysis.
Samples for PD determination (viral load content by RT-PCR) were washed once with 1 ml PBS (w/out Mg^2+ and Ca^2+). […] Viral RNA content of the cells was determined by quantitative PCR. […]

[2] = test system: HCV genotype 1B containing 5-2 cells; assay: plate-based RNA content assay; conditions: Hepatitis C virus; HCV genotype 1B 5-2 cells, plate-based RNA content assay (data not shown)
Method: The EC50 of Compound against HCV genotype 1B containing 5-2 cells was determined to be 0.7 nM in plate-based RNA content assays (data not shown). A dose escalation experiment in which HCV genotype 1B 5-2 cells were dosed QD over three days at 0.3×EC50, 1×EC50, 3×EC50 and 10×EC50 and a dose fractionation experiment in which cells were dosed QD, BID or TID to obtain a constant AUC of ˜16.8 nM were performed using the HulaCell system. Results of the reporter assays for the dose escalation experiment are shown in FIGS. 6A-B. The combined PK results of the dose escalation experiment area shown in FIG. 7.

[3] = test system: HCV genotype 1B (5-2) replicon cell line; assay: BelloCell in vitro PK-PD PK driver experiments; conditions: adjusted to free fraction, Day 3
From the text: A 4-tube HulaCell system was validated by comparing the results for the Compound PK driver experiments, previously performed in the BelloCell® (data not shown), with the results obtained from dose escalation and dose fractionation studies performed using the HulaCell system.
Calculated PK Driver parameters from HulaCell experiments, compared to those determined in BelloCell experiments are shown in Table 1.
The Hula Cell was successfully used to determine the Maximum efficacy threshold values at Day 3 for Compound in the HCV genotype 1B (5-2) replicon cell line. The PK correlation curves were remarkably similar between the BelloCell® and Hula cell with the only noticeable differences being the prediction of the % T>EC50 and the AUC.

C=C[C@@H]1C[C@]1(NC(=O)[C@@H]1C[C@@H]2CN1C(=O)[C@H](C(C)(C)C)NC(=O)O[C@@H]1C[C@H]1CCCCCc1nc3ccc(OC)cc3nc1O2)C(=O)NS(=O)(=O)C1CC1 [Compound, (1aR,5S,8S,10R,22aR)-N-[(1R,2S)-1-[(Cyclopropylsulfonamido)carbonyl]-2-ethenylcyclopropyl]-14-methoxy-5-(2-methylpropan-2-yl)-3,6-dioxo-1,1a,3,4,5,6,9,10,18,19,20,21,22,22a-tetradecahydro-8H-7,10-methanocyclopropa[18,19][1,10,3,6]dioxadiazacyclononadecino[11,12-b]quinoxaline-8-carboxamide]
Maximum Efficacy Threshold % T > EC50 [1]: ≥84%
Maximum Efficacy Threshold AUC0-24 [1]: ≥23.7 nM·h
Maximum Efficacy Threshold Cmin [1]: ≥0.10 nM
EC50 [2]: 0.7 nM
Maximum Efficacy Threshold % T > EC50 [3]: ≥50%
Maximum Efficacy Threshold AUC0-24 [3]: ≥8.4 nM·h
Maximum Efficacy Threshold Cmin [3]: ≥0.11 nM
